Assay results published in patent US20050245452A1, “Pharmaceutical use of novispirins” (Novozymes A/S, priority 2004, published 2005).

Tests used:
[1] = test system: P. acnes (erythromycin resistant); assay: MIC on Propionebacterium acnes, erythromycin resistant strain; type: cell-based; conditions: clinically resistant to clindamycin and erythromycin
Method: (§1) Minimal Inhibitory Concentration (MIC) of Novispirin G10 (SEQ ID NO: 16) was evaluated against P. acnes. Two strains were tested—one of which is clinically resistant to clindamycin and erythromycin.

[2] = test system: Staphylococcus aureus (ATCC 25923); assay: Staphylococcus aureus wound infection in pigs (wound chambers, 4 hour time course); type: in vivo, Göttinger minipigs; conditions: 1 ml applied
Method: The bacterial strain, Staphylococcus aureus, used in the study was ATCC 25923. The amino acid sequence of Novispirin G10 is shown in SEQ ID NO: 16.
Novispirin G10 was diluted in 0.01% acetic acid containing 0.1% BSA with a final concentration of 1 mg (substrate)/ml (solution); 100 micrograms/ml; 10 micrograms/ml and 1 microgram/ml. The carrier control was 0.01% acetic acid containing 0.1% BSA. As a positive control was used Synthetic Protegrin 1 (Charité, Institut f. Biochemie d. Humboldt Universität Berlin) diluted in 0.01% acetic acid containing 0.1% BSA with a final concentration of 100 micrograms/ml.
The chambers are made of one piece of titanium, have a screw top cover (also made of titanium) and were built in teamwork with Cranio Construct Bochum. The chambers have a height of 14 mm, an inner diameter of 25 mm and an outer diameter of 32 mm without baseplate (with baseplate: 50 mm).
After providing permission to conduct experiments with vertebrates in compliance with German animal protection laws, Göttinger minipigs (Fa. Ellegaard, Dalmose, Denmark; female, 6 months old, 25-30 kg weight) were chosen to implant the chambers on. The pigs were kept at least 2 weeks in the stable, fed a standard porcine diet and housed at 20° C. to 30° C. in an atmosphere of approximately 65% humidity with a light cycle of 12 hours on and 12 hours off. The animals used for this study appeared, during the experiments, clinically healthy—rectal temperature and body weight remained normal over the observed period.
Before wounding the skin was surgically prepared, washed with soap and disinfected with Octenisept (S&M, Norderstedt, Germany) for five minutes. Twelve BO-Chambers were implanted on the pigs back and flank between the base of the scapula and the iliac crest. The wounds were spaced a minimum of 5 cm apart and were created in four rows parallel to the columna vertebralis, two rows on each side of the columna vertebrtalis. The exact size and shape of the wounds were ensured by a special custom-made “round-scalpel” (also built in teamwork with Cranio Construct Bochum), which has a diameter of 33 mm. Epidermal, dermal subcutaneous tissues were removed, possible bleedings stanched by bipolar diathermy. The chambers were placed with an additionally secant v-incision at positions 6 respectively 12 o'clock on the musculus thoracicus longus fascia and the muscle fascia of the external ripcage muscles. The incisions were sutured with 2/0 Monocryl followed by the closure of the chambers. Povidone-iodine salve (Betaisodonna-salve, Mundipharma, Austria) was smothered on the wound edges. The chambers were dressed with paraffin gauze (Jelonet, Smith & Nephew, Lohfelden, Germany) and sterile compresses. Dressings were changed every second day under sedation (as described above).
Bacterial Background of each chamber was measured every second day, to detect potential contamination. Only one contaminated chamber was detected. Seven days post operation ten chambers were inoculated with bacteria.
For bacteria progeny Staphylococcus aureus (ATCC 25923) was plated on LB-Agar plate and incubated at 37° C. for 18 hours. One colony was picked and transfered into 3 ml LB-Medium for over night culture at 37° C. at 300 rpm. Over night culture was diluted in 50 ml fresh LB-Medium and incubated for 2.5 hours at 37° C. at 200 rpm.
Bacteria were pelleted, 4000 rpm, 5 min, Mergafuge 1.0 R (Heraeus, Hanau, Germany), and resuspended in PBS. Amount of containg bacteria was detremined by OD600 nm-measurement and calculated as follows: Colony forming Unit/ml=OD600 nm×2.5×10^8 (bacteria)
To inoculate one chamber 5×10^8 were used.
The establishment of the infection was proven by the measurement of bacterial counts per chamber. All inoculated chambers were infected after two days. Chamber No. 2 keeps bacteria free.
At day four after infection the antimicrobial effect of the testing substrate was measured in a time course of 4 hours in duration. […]

[3] = test system: P. acnes (erythromycin sensitive); assay: MIC on Propionebacterium acnes, erythromycin sensitive strain; type: cell-based
Method: as §1

Novispirin G10: novispirin antimicrobial polypeptide; amino acid sequence shown in SEQ ID NO: 16 (KNLRRIIRKGIHIIKKYG; Synthetic antimicrobial peptide)
Minimal Inhibitory Concentration (MIC) [1]: 1 | Mean CFU per ml sample volume (chamber fluid) ([2]; 1 mg/ml, 0 hours): 10700000 CFU/ml | Mean CFU per ml sample volume (chamber fluid) ([2]; 1 mg/ml, 1 hour): 2817 CFU/ml | Mean CFU per ml sample volume (chamber fluid) ([2]; 1 mg/ml, 2 hours): 2100 CFU/ml | Mean CFU per ml sample volume (chamber fluid) ([2]; 1 mg/ml, 3 hours): 833 CFU/ml | Mean CFU per ml sample volume (chamber fluid) ([2]; 1 mg/ml, 4 hours): 1233 CFU/ml | Mean CFU per ml sample volume (chamber fluid) ([2]; 1 microgram/ml, 0 hours): 9060000 CFU/ml | Mean CFU per ml sample volume (chamber fluid) ([2]; 1 microgram/ml, 1 hour): 2508333 CFU/ml | Mean CFU per ml sample volume (chamber fluid) ([2]; 1 microgram/ml, 2 hours): 159067 CFU/ml | Mean CFU per ml sample volume (chamber fluid) ([2]; 1 microgram/ml, 3 hours): 33858 CFU/ml | Mean CFU per ml sample volume (chamber fluid) ([2]; 1 microgram/ml, 4 hours): 148333 CFU/ml | Mean CFU per ml sample volume (chamber fluid) ([2]; 10 micrograms/ml, 0 hours): 5065000 CFU/ml | Mean CFU per ml sample volume (chamber fluid) ([2]; 10 micrograms/ml, 1 hour): 440500 CFU/ml | Mean CFU per ml sample volume (chamber fluid) ([2]; 10 micrograms/ml, 2 hours): 304500 CFU/ml | Mean CFU per ml sample volume (chamber fluid) ([2]; 10 micrograms/ml, 3 hours): 40910 CFU/ml | Mean CFU per ml sample volume (chamber fluid) ([2]; 10 micrograms/ml, 4 hours): 1563188 CFU/ml | Mean CFU per ml sample volume (chamber fluid) ([2]; 100 micrograms/ml, 0 hours): 1330000 CFU/ml | Mean CFU per ml sample volume (chamber fluid) ([2]; 100 micrograms/ml, 1 hour): 790033 CFU/ml | Mean CFU per ml sample volume (chamber fluid) ([2]; 100 micrograms/ml, 2 hours): 195125 CFU/ml | Mean CFU per ml sample volume (chamber fluid) ([2]; 100 micrograms/ml, 3 hours): 142765 CFU/ml | Mean CFU per ml sample volume (chamber fluid) ([2]; 100 micrograms/ml, 4 hours): 8467 CFU/ml | Minimal Inhibitory Concentration (MIC) [3]: 2
